# Patent US4067899A, “Terpenophenols” (Societe Anonyme dite: MAR-PHA, Societe d'Etude et …, priority 1974, dated 1978)
# How the values were obtained:
# Test in all cases: Bacteriostatic activity by the method of streaks in gelose media, minimum inhibitory concentration
# Format in all cases: cell-based
# Staphylococcus Aureus = conditions: streaks from 24 hour old culture, gram + ve, read-out: Minimal inhibitory concentration Staphylococcus Aureus
# Method: (§1) The bacteriostatic activity of the phenols according to the invention has been evaluated by the method of streaks in gelose media. This method comprises making increasing dilutions of the product to be tested, in nutritive geloses poured into a Petri dish.
# (§2) The various bacteria to be studied are then introduced onto the geloses in parallel streaks by means of a platinum loop which has been immersed in a 24 hour old culture of each bacteria.
# (§3) The activity of these compounds has been studied vis a vis two gram + ve bacteria, namely Staphylococcus Aureus and Streptococcus Pyrogenes.
# Streptococcus Pyrogenes = conditions: streaks from 24 hour old culture, gram + ve, read-out: Minimal inhibitory concentration Streptococcus Pyrogenes
# Method: as §1, §2, §3
# Escherichia Coli = conditions: streaks from 24 hour old culture, read-out: Minimal inhibitory concentration Escherichia Coli
# Method: as §1, §2
SMILES,MIC (Staphylococcus Aureus) [µg/mL],MIC (Streptococcus Pyrogenes) [µg/mL],MIC (Escherichia Coli) [µg/mL]
"CC1(C)C2CCC1(C)C(c1cc([N+](=O)[O-])ccc1O)C2 (centres unmarked) [Example 3, 2-isobornyl-4-nitrophenol]",1,5,–
"CC1(C)C2CCC1(C)C(c1cc(Br)ccc1O)C2 (centres unmarked) [Example 4, 2-isobornyl-4-bromophenol]",2,30,–
"O=[N+]([O-])c1ccc(O)c(C2CC3CCC2C3)c1 (stereo not drawn) [Example 5, 2-exo-norbornyl-4-nitrophenol]",5,10,–
"CC1C2CC(CC2c2cc(Br)ccc2O)C1(C)C (centres unmarked) [Example 6, 2-isocamphyl-4-bromophenol]",2.5,5,–
"Oc1ccc(Br)cc1C1CC2CCC1C2 (stereo not drawn) [Example 8, 2-exo-norbornyl-4-bromophenol]",7.5,20,7.5
"Cc1cc(O)c(C2CC3CCC2C3)cc1Br (stereo not drawn) [Example 9, 2-exo-norbornyl-4-bromo-5-methylphenol]",5,–,20
"Oc1ccc(Cl)cc1C1CC2CCC1C2 (stereo not drawn) [Example 10, 2-exo-norbornyl-4-chlorophenol]",5,–,10
"CC1(C)C2CCC1(C)C(c1cc(Cl)ccc1O)C2 (centres unmarked) [Example 11, 2-isobornyl-4-chlorophenol]",2.5,10,–
"Cc1ccc(O)c(C2CC3CC2C(C)C3(C)C)c1 (centres unmarked) [Example 13, 2-isocamphyl-4-methylphenol]",5,20,–
"COc1ccc(O)cc1C1CC2CCC1(C)C2(C)C (centres unmarked) [Example 14, 3-isobornyl-4-methoxyphenol]",5,10,–

# Now from value to molecule:
MIC (Staphylococcus Aureus) [µg/mL],MIC (Streptococcus Pyrogenes) [µg/mL],MIC (Escherichia Coli) [µg/mL],SMILES
1,7.5,–,"Cc1cc(O)c(C2CC3CCC2(C)C3(C)C)cc1[N+](=O)[O-] (centres unmarked) [Example 1, 2-isobornyl-4-nitro-5-methylphenol]"
5,15,–,"Cc1cc(O)c(C2CC3CCC2(C)C3(C)C)cc1Br (centres unmarked) [Example 2, 2-isobornyl-4-bromo-5-methyl-phenol]"
2.5,5,–,"Cc1cc(O)c(C2CC3CCC2(C)C3(C)C)cc1Cl (centres unmarked) [Example 7, 2-isobornyl-4-chloro-5-methylphenol]"
5,–,–,"COc1cc(C)c(O)cc1C1CC2CCC1(C)C2(C)C (centres unmarked) [Example 12, 2-methyl-4-methoxy-5-isobornyl phenol]"
5,10,–,"Cc1cc(O)c(C2CC3CCC2(C)C3(C)C)cc1C#N (centres unmarked) [Example 15, 2-isobornyl-4-cyano-5-methylphenol]"
5,7.5,–,"CC1(C)C2CCC1(C)C(c1cc(C#N)ccc1O)C2 (centres unmarked) [Example 16, 2-isobornyl-4-cyano phenol]"
